Laboratory results published in publication PMC6624297 (Cell Death & Disease, 2019).

Assays:
[1] = system: H460 cells; assay: MTT assay H460; assay type: cell-based, human
Description: Details are given in Supplementary Materials and Methods. Using probability unit and weighted regression method to calculate the IC50 value of compounds.
Total cells in the logarithmic growth phase were collected, digested using 0.25% pancreatic enzymes, and then diluted into single-cell suspensions using phosphate-buffered solution (PBS). These cells were seeded into 96-well plates at 4× 10^3-5× 10^3 cells per well (100 µL per well) and then A549, H460, OVCAR-3, SGC7901, MDA-MB-231, HCT116 and HepG2 were cultured at 37°Cin an incubator containing 5% CO2. After cell complete attachment, 100 µL of different concentrations of compounds (0.625 μM, 1.25 μM, 2.5μM, 5 μM, 10 μM) were added to the cells after the nutrient solution in each well was discarded, while no compound except 0.1% DMSO was added to cells in the control group; at the same time, each concentration was set up to 5 wells. In addition, 5 wells in each 96-well plate only received 100 µL of nutrient solution as a blank control. The plates were taken out after the cells were incubated with compounds for 24 h, and 20 µL of MTT solution (5 mg/mL) (Wuhan Boster Biotechnology Limited Company, Wuhan, China; item No. AR1156) was added into all the wells. […] When the crystals were fully dissolved, the blank wells were used to zero the plate reader. The optical density (OD) of each well was detected at 490 nm. […]

[2] = system: p-EGFR, p-AKT, p-ERK1/2; assay: Western blot EGFR signaling pathway, A549; assay type: cell-based, human; conditions: A549, 0.5, 1.0, 1.5 μM, 24 h, EGF 50 ng/ml
Description: A549 cells, H460 cells and HUVECs were treated with different concentrations of compound L14e for 24 h. Primary antibodies (100 μL/cm^2): P53(10442-1-AP, Proteintech Group),caspase-3 (19677-1-AP, Proteintech Group), bax (50599-2-lg, Proteintech Group), bcl-2 (12789-1-AP, Proteintech Group), cleaved caspase-3 (25546-1-AP, Proteintech Group), β-actin (60008-1-lg, Proteintech Group), EGFR (ab21074, Abcam), AKT (#2920, Cell Signaling Technology), ERK1/2 (#4370, Cell Signaling Technology), VEGFR-2 (#9698, Cell Signaling Technology), p-EGFR (ab40815, Abcam), p-AKT (#4060, Cell Signaling Technology), p-ERK1/2 (#4695, Cell Signaling Technology), p-VEGFR-2 (#3770, Cell Signaling Technology), and GAPDH (ab181603, Abcam). The cellular levels of proteins were determined by standard Western blotting. Details were given in Supplementary Materials and Methods.
A549 cells, H460 cells and HUVECs were treated with different concentrations of compound L14e for 24 h, and collected to establish their respective treatment groups. […]
Extracted proteins were separated from each other using polyacrylamide electrophoresis on a 10 % gel (Beyotime Biotechnology Company, Shanghai, China) and transferred to a polyvinylidene fluoride (PVDF) membrane. […] Gray values of protein bands were quantitatively analyzed, with the gray value of β-actin(GAPDH) band as the reference.

[3] = target: BRaf kinase (Homo sapiens, UniProt P15056); assay: ADP-Glo kinase assay, BRaf; assay type: biochemical; conditions: averages from triplicate assays
BRaf kinase, sequence (P15056 whole entry): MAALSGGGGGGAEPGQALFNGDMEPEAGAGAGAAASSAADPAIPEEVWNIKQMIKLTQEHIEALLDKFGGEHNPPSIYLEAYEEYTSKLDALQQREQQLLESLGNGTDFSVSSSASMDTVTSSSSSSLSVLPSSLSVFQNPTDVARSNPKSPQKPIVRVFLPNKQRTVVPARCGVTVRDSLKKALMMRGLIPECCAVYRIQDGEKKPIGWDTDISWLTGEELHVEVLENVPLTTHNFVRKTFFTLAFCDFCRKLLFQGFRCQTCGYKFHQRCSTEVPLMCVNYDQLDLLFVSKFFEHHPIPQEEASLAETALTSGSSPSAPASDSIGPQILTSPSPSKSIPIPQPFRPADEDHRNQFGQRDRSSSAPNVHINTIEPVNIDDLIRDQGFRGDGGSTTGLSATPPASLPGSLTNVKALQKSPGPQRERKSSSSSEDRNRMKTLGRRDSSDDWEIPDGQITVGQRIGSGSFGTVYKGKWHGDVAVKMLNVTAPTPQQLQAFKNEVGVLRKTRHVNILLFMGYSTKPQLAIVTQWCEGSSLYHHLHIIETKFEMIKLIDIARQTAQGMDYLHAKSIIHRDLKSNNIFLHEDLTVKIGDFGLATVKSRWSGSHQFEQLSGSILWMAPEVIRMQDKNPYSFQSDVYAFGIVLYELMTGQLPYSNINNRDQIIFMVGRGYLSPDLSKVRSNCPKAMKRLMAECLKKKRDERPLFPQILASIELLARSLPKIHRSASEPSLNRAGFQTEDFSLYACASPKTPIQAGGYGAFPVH
Description: The ADP-Glo™ kinase assay (Promega, Madison, WI) was used to screen target compounds for their inhibition effects for BRaf, EGFR kinase. The kinase assay was carried out in a 96-well plate, in a volume of 25 μL HEPES (pH 7.3) solvent containing 1.6 μg/mL EGF, and 20 ng of EGFR kinase, or 50 ng BRaf kinase, and 10 μM ATP (Promega, Madison, WI). […] Reactions in each well were started immediately by adding ATP and kept going for half an hour under 30 °C in a constant temperature incubator (Bluepard, Shanghai, China). After the plate cooled for 5 min at room temperature, 25 μl of ADP-Glo reagent was added into each well to stop the reaction and consume the remaining […] within 40 min. At the end, 50 μl of kinase detection reagent was added into the well and incubated for 1 h to produce a luminescence signal.

[4] = system: SK-MES-1 cells; assay: MTT assay SK-MES-1; assay type: cell-based
[5] = HPLC analysis of stability in cell culture medium; assay type: physicochemical
Description: The HPLC system consisted of e2695 Separations Module pump coupled to a 2489 UV/Visible detector (Waters Corp., Milford, MA, USA). Chromatograms was achieved on a Waters BDS C18 column (200 mm × 4.6 mm, 5 um). Detection was performed at a wavelength of 260 nm at 37 °C. The mobile phase consisted of 0.1% phosphoric acid water /methanol (50/50, v/v) at a flow rate of 1.0 mL/min. A10 µL of sample was injected. The results are loaded in the supplemental file.

O=C(Nc1cccc(Cl)c1)Nc1ccccc1NS(=O)(=O)c1c[nH]c(=O)[nH]c1=O [Compound L14e, N'-(3-chlorophenyl)-2-(2,4-dihydroxypyrimidine-5-sulfonamido)phenyl urea]
anti-proliferative potency relative to PTX, H460 [1]: nearly five times higher | inhibition of proliferation of H460 cells compared with PTX and compound 10l ([1]; Fig. 2B(b)): significantly more inhibitory | expression of phosphorylated EGFR (Tyr1068) and AKT (Ser473) [2]: significantly reduced | IC50 [3]: 1090 nM | inhibition of SK-MES-1 cells [4]: did not inhibit | HPLC-UV Measure Concentration ([5]; nominal 0.625 µM, 1h): 0.621 ± 0.005 µM | HPLC-UV Measure Concentration ([5]; nominal 0.625 µM, 12h): 0.623 ± 0.001 µM | HPLC-UV Measure Concentration ([5]; nominal 0.625 µM, 24h): 0.625 ± 0.002 µM | HPLC-UV Measure Concentration ([5]; nominal 0.625 µM, 36h): 0.625 ± 0.001 µM | HPLC-UV Measure Concentration ([5]; nominal 1.25 µM, 1h): 1.246 ± 0.005 µM | HPLC-UV Measure Concentration ([5]; nominal 1.25 µM, 12h): 1.239 ± 0.003 µM | HPLC-UV Measure Concentration ([5]; nominal 1.25 µM, 24h): 1.253 ± 0.007 µM | HPLC-UV Measure Concentration ([5]; nominal 1.25 µM, 36h): 1.242 ± 0.009 µM | HPLC-UV Measure Concentration ([5]; nominal 2.5 µM, 1h): 2.510 ± 0.020 µM | HPLC-UV Measure Concentration ([5]; nominal 2.5 µM, 12h): 2.506 ± 0.021 µM | HPLC-UV Measure Concentration ([5]; nominal 2.5 µM, 24h): 2.430 ± 0.002 µM | HPLC-UV Measure Concentration ([5]; nominal 2.5 µM, 36h): 2.483 ± 0.050 µM | HPLC-UV Measure Concentration ([5]; nominal 5 µM, 1h): 5.001 ± 0.010 µM | HPLC-UV Measure Concentration ([5]; nominal 5 µM, 12h): 4.963 ± 0.005 µM | HPLC-UV Measure Concentration ([5]; nominal 5 µM, 24h): 5.012 ± 0.023 µM | HPLC-UV Measure Concentration ([5]; nominal 5 µM, 36h): 4.980 ± 0.020 µM | HPLC-UV Measure Concentration ([5]; nominal 10 µM, 1h): 10.000 ± 0.049 µM | HPLC-UV Measure Concentration ([5]; nominal 10 µM, 12h): 9.908 ± 0.100 µM | HPLC-UV Measure Concentration ([5]; nominal 10 µM, 24h): 9.930 ± 0.100 µM | HPLC-UV Measure Concentration ([5]; nominal 10 µM, 36h): 9.850 ± 0.150 µM
